Source: publication PMC10999543, “Identification of kinase modulators as host-directed therapeutics against intracellular methicillin-resistant Staphylococcus aureus” (Frontiers in Cellular and Infection Microbiology, 2024)
Like-named read-outs stand apart in the source and are kept apart here.

Legend:
HeLa cells = experiment: Compound screen by flow cytometry: HeLa cell count as surrogate readout of cell viability (z-scoreHeLa); type: cell-based, human; details: for z-scoreHeLa mean: mean of 3 replicates; for z-scoreHeLa rep 1 / cell count rep 1: replicate 1; for z-scoreHeLa rep 2 / cell count rep 2: replicate 2; for z-scoreHeLa rep 3 / cell count rep 3: replicate 3
Outline: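 HeLa cells were infected with GFP-MRSA (mean MOI 6.8 ± 4.6) for 1 h, and extracellular bacteria were killed with 30 µg/ml gentamicin. Cells were then incubated overnight with kinase inhibitors in 5 µg/ml gentamicin, in triplicate against DMSO controls. Flow-cytometric cell count served as a viability surrogate, expressed as a plate z-score.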

HER4 = test system: HER4; design: method as in Elkins et al., 2016; details: PKIS1, Caliper assay, ref Elkins et al., 2016; cited from earlier work
HER2 = test system: HER2; design: method as in Elkins et al., 2016; details: PKIS1, Caliper assay, ref Elkins et al., 2016; cited from earlier work
intracellular MRSA = type: cell-based, Staphylococcus aureus; details: for z-scoreMRSA+ mean: mean of 3 replicates; for z-scoreMRSA+ rep 1 / %GFP+ rep 1: replicate 1; for z-scoreMRSA+ rep 2 / %GFP+ rep 2: replicate 2; for z-scoreMRSA+ rep 3 / %GFP+ rep 3: replicate 3; for z-score GFP+: flow cytometry screen, 10 µM, HeLa cells
Outline: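 HeLa cells infected with GFP-MRSA (MOI ~6.8), gentamicin-cleared, then incubated overnight at 37°C with inhibitors plus 5 µg/ml gentamicin; DMSO as negative control, triplicates. Flow cytometry gave % GFP-positive cells and cell count (viability surrogate); hits by plate z-score (MRSA ≤ -2, HeLa count ≥ -3).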

EGFR = test system: EGFR; design: method as in Elkins et al., 2016; details: PKIS1, Caliper assay, ref Elkins et al., 2016; cited from earlier work
[1] = test system: intracellular MRSA in HeLa cells; experiment: Gentamicin protection assay with CFU count in MRSA-infected HeLa cells; type: cell-based, Staphylococcus aureus; details: 10 µM, MRSA-infected HeLa cells
Protocol: The cells were resuspended in cell culture medium without antibiotics, seeded with 10,000 cells/well into Costar flat-bottom 96-well plates (Corning, Amsterdam, the Netherlands), and were incubated overnight at 37°C/5% CO2. The next day, the bacteria were centrifuged at ≥1800 g for 15 min and resuspended in cold PBS + 5 mM ethylenediaminetetraacetic acid (EDTA). The number of CFUs present in the bacterial suspension was estimated from the optical density at 600 nm (OD600) by assuming 8x10^8 CFUs to be present in a bacterial suspension with OD600 = 1, based on prior titrations. The bacterial suspension was diluted in cell culture medium without antibiotics and added to the cells. Accuracy of the multiplicity of infection (MOI) was validated by plating serial dilutions of the MRSA inoculums on Difco TS agar plates (BD Biosciences). The calculated mean MOI throughout all experiments was 6.8 ± 4.6 (mean ± SD). Infected cells were centrifuged for 3 min at 150 g and incubated for 1 hour at 37°C/5% CO2. Next, the cells were incubated with fresh cell culture medium supplemented with 30 µg/ml gentamicin sulphate (Lonza BioWhittaker, Basel, Switzerland) for 15 min at 37°C/5% CO2 to kill residual extracellular bacteria. Infected cells were incubated overnight at 37°C/5% CO2 in cell culture medium in the presence of kinase inhibitors and 5 µg/ml gentamicin sulphate-containing medium to prevent the growth of extracellular bacteria. The solvent of the compounds, DMSO, was used at equal % v/v as a negative control. For the screen, each compound was tested in triplicate, on separate cell culture plates, resulting in triplicate values for each kinase inhibitor.
Infected cells were lysed in sterile water + 0.05% UltraPure SDS solution (Invitrogen, ThermoFisher Scientific) to release intracellular bacteria. Bacterial suspensions and lysates of cells infected with MRSA were 5-fold serially diluted and 10-μl drops were plated on square TS agar plates. The plates were left to dry and incubated overnight at 37°C/5% CO2.

[2] = PKIS compound screen, Yes/No call
[3] = PKIS compounds raw data, HeLa cell count
[4] = PKIS compound screen, Yes/No call (effect without cell death)
[5] = PKIS compounds raw data, MRSA-infected HeLa cells
[6] = PKIS compound screen raw data, HeLa cell count
[7] = PKIS compound screen, HeLa cell count
[8] = PKIS compound screen raw data, MRSA-infected HeLa cells
[9] = PKIS compound screen, MRSA-infected HeLa cells
[10] = compound screen, HeLa cell count
[11] = Yes/No: effect without cell death
[12] = compound screen, MRSA-infected HeLa cells

Structure (SMILES)	cell death (HeLa cells; [2])	z-scoreHeLa mean (HeLa cells; PKIS compound screen)	z-scoreHeLa rep 1 (HeLa cells; PKIS compound screen)	z-scoreHeLa rep 2 (HeLa cells; PKIS compound screen)	z-scoreHeLa rep 3 (HeLa cells; PKIS compound screen)	cell count rep 1 (HeLa cells; [3])	cell count rep 2 (HeLa cells; [3])	cell count rep 3 (HeLa cells; [3])	% inhibition at 1 µM HER4 (HER4) [%]	% inhibition at 1 µM HER2 (HER2) [%]	effect (intracellular MRSA; [2])	hit (intracellular MRSA; [4])	z-scoreMRSA+ mean (intracellular MRSA; PKIS compound screen)	z-scoreMRSA+ rep 1 (intracellular MRSA; PKIS compound screen)	z-scoreMRSA+ rep 2 (intracellular MRSA; PKIS compound screen)	%GFP+ rep 1 (intracellular MRSA; [5]) [%]	%GFP+ rep 2 (intracellular MRSA; [5]) [%]	%GFP+ rep 3 (intracellular MRSA; [5]) [%]	% inhibition at 1 µM EGFR (EGFR) [%]	CFU (% of DMSO) at 10 µM [1]	further results
[O-][S+]1CCN(Cc2ccc(-c3ccc4ncnc(Nc5ccc(OCc6ccccc6)c(F)c5)c4c3)o2)CC1 [GW576924A]	No	-0.58	-1.18	-0.60	0.0442	3467	3479	7054	75	91	Yes	Yes	-2.35	-1.94	-2.43	7.1	6.2	6.8	82	137.9 % of DMSO	z-scoreMRSA+ rep 3 (intracellular MRSA; PKIS compound screen): -2.70; z-score GFP+ (intracellular MRSA): -2.36
CS(=O)(=O)CCNCc1ccc(-c2ccc3ncnc(Nc4ccc(OCc5ccccc5)c(Cl)c4)c3c2)o1 [GW574783B]	No	1.91	1.69	1.91	2.13	8853	8889	8965	89	75	Yes	No and Yes	-2.62	-2.66	-2.54	13.4	12.8	13.0	91	53.4 % of DMSO	cell count rep 1 (HeLa cells; [6]): 17891; cell count rep 2 (HeLa cells; [6]): 35533; cell count rep 3 (HeLa cells; [6]): 50424; z-scoreHeLa mean (HeLa cells; [7]): 0.46; z-scoreHeLa rep 1 (HeLa cells; [7]): -0.34; z-scoreHeLa rep 2 (HeLa cells; [7]): 0.14; z-scoreHeLa rep 3 (HeLa cells; [7]): 1.58; cell death (HeLa cells; PKIS compound screen, Yes/No call on z-scoreHeLa): No; %GFP+ rep 1 (intracellular MRSA; [8]): 11.2%; %GFP+ rep 2 (intracellular MRSA; [8]): 11.2%; %GFP+ rep 3 (intracellular MRSA; [8]): 14.4%; z-scoreMRSA+ mean (intracellular MRSA; [9]): -1.99; z-scoreMRSA+ rep 1 (intracellular MRSA; [9]): -2.11; z-scoreMRSA+ rep 2 (intracellular MRSA; [9]): -2.20; z-scoreMRSA+ rep 3 (intracellular MRSA; [9]): -1.64; effect (intracellular MRSA; PKIS compound screen, Yes/No call on z-scoreMRSA+): No; z-scoreMRSA+ rep 3 (intracellular MRSA; PKIS compound screen): -2.65; z-score GFP+ (intracellular MRSA): -2.30
CS(=O)(=O)CCNCc1ccc(-c2ccc3ncnc(Nc4ccc(OCc5ccccc5)c(Br)c4)c3c2)o1 [GW580496A]						5658	6483	11366	80	74						5.4	6.0	5.1	82	65.3 % of DMSO	cell death (HeLa cells; Yes/No call from z-scoreHeLa): No; z-scoreHeLa mean (HeLa cells; [10]): 1.53; z-scoreHeLa rep 1 (HeLa cells; [10]): 0.80; z-scoreHeLa rep 2 (HeLa cells; [10]): 1.67; z-scoreHeLa rep 3 (HeLa cells; [10]): 2.11; effect (intracellular MRSA; Yes/No call from z-scoreMRSA+): Yes; hit (intracellular MRSA; [11]): Yes; z-scoreMRSA+ mean (intracellular MRSA; [12]): -2.73; z-scoreMRSA+ rep 1 (intracellular MRSA; [12]): -2.50; z-scoreMRSA+ rep 2 (intracellular MRSA; [12]): -2.51; z-scoreMRSA+ rep 3 (intracellular MRSA; [12]): -3.18
CCCN(CCS(C)(=O)=O)Cc1ccc(-c2ccc3ncnc(Nc4ccc(OCc5cccc(F)c5)c(Cl)c4)c3c2)o1 [GW621823A]	No	0.59	0.17	0.58	1.02	4961	5042	9090	79	82	Yes	Yes	-2.21	-2.10	-1.86	6.6	7.9	6.9	78	68.4 % of DMSO	z-scoreMRSA+ rep 3 (intracellular MRSA; PKIS compound screen): -2.67
CS(=O)(=O)CCN(CC#N)Cc1ccc(-c2ccc3ncnc(Nc4ccc(OCc5cccc(F)c5)c(Cl)c4)c3c2)o1 [GW616030X]						2826	3932	5918	74	67						7.5	7.4	6.2	77	50.3 % of DMSO	cell death (HeLa cells; Yes/No call from z-scoreHeLa): No; z-scoreHeLa mean (HeLa cells; [10]): -0.84; z-scoreHeLa rep 1 (HeLa cells; [10]): -1.76; z-scoreHeLa rep 2 (HeLa cells; [10]): -0.25; z-scoreHeLa rep 3 (HeLa cells; [10]): -0.50; effect (intracellular MRSA; Yes/No call from z-scoreMRSA+): Yes; hit (intracellular MRSA; [11]): Yes; z-scoreMRSA+ mean (intracellular MRSA; [12]): -2.24; z-scoreMRSA+ rep 1 (intracellular MRSA; [12]): -1.82; z-scoreMRSA+ rep 2 (intracellular MRSA; [12]): -2.03; z-scoreMRSA+ rep 3 (intracellular MRSA; [12]): -2.88
